Measurements published in patent US20250313555A1, “2-SUBSTITUTED THIAZOLE AND BENZOTHIAZOLE COMPOSITIONS AND METHODS AS DUX4 INHIBITORS” (ALTAY THERAPEUTICS, INC., priority 2022, published 2025).

Assays:
Assay type in all cases: cell-based
[1] = tested on: MBD3L2 RNA; experiment: RNA isolation and qPCR to determine MBD3L2 RNA levels in FSHD cells; settings: 48 hrs
Protocol: Protocol for RNA Isolation and qPCR to Determine MBD3L2 RNA Levels The protocol describes the process of isolating RNA from cultured cells, converting the RNA to complementary DNA (cDNA), and measuring target gene expression using a quantitative polymerase chain reaction (qPCR). The seed FSHD cells were dispensed into a six-well dish. One day after seeding, the DUX4 inhibitor (11 μM or 3.6 μM/well) was added to the cells. After another 48 hrs, the old media was removed from the cells. The cells were washed with 2 mL of warm phosphate buffered saline (PBS). The PBS was aspirated, and the cells were lysed in each well with 350 μL of RLT buffer+3.5 μL of beta-mercaptoethanol (BME). The lysates were added to fresh, RNAse-free, labeled Eppendorf tubes. The cells were then physically disrupted for […] at level 4 of the bead disrupter to ensure the release of the RNA. The RNA was collected according to standard procedures (i.e., Qiagen kit instructions) as discussed below. The RNA concentrations were standardized to […]. In a PCR tube, RNA (2 μg) in a new Eppendorf tube was diluted with RNase-free water to a 9.5 μL final volume of […] RNA. DNase was used to remove any DNA contamination. A DNase Master Mix was prepared from 1.5 μL/reaction DNase solution (1 unit/μL, Promega), 3 μL/reaction 5× RT buffer (i.e., 250 mM Tris-HCl (pH 8.3), 375 mM KCl, 15 mM MgCl2, and 500 μl 0.1 M DTT; Promega MMLV), and 1 μL/reaction RNase inhibitor solution (RNasin, 40 units/μL, Promega). The DNase Master Mix was added to the standardized RNA samples (5.5 μL/sample). The samples were mixed by agitation and briefly spun down by centrifuge. The samples were heated to 37° C. for 60 min, 80° C. for 5 min, and then cooled to 4° C. The samples were stored on ice until the addition of the next reagents. An RT Reaction Master Mix was prepared from 5 μL/reaction 5× RT buffer, 2 μL/reaction dNTP solution (2.5 mM in each nucleotide), 1 μL/reaction RNase inhibitor solution (RNasin, 40 units/μL, Promega), 1.6 μL/reaction M-MLV reverse transcriptase (200 units/μL, Promega), and 13.4 μL/reaction deionized, RNase-free water. The RT Reaction Master Mix was cooled on ice until use. A 50 μM solution of Random Primer 6 random hexanucleotides (2 μL) was added to each sample. The samples were mixed by agitation and briefly spun down by centrifuge. The samples were heated to 70° C. for 5 min and then cooled to 4° C. The RT Reaction Master Mix (23 μL) was added to each sample. The samples were mixed by agitation and briefly spun down by centrifuge. To convert the RNA to cDNA, the samples were heated to 42° C. for 60 min, 95° C. for 5 min, and then cooled to 4° C. The cDNA product mixture was diluted 5:1 with deionized water (40 μL+160 μL). The samples were run in triplicate, with a methyl-CpG-binding protein 3-like 2 (MBD3L2) target primer and a eukaryotic translation elongation factor 1-alpha (EEF1A) control primer. An qPCR Master Mix was prepared for each primer and stored on ice (4° C.) until use. The qPCR Master Mix included 10 μL/reaction SYBR Green Mix (2×) (ThermoFisher), 1 μL/reaction of the primer mix (i.e., the MBD3L2 PCR Primer mix or the EEF1A Primer mix), and 4 μL/reaction deionized, RNase-free water. To set up the qPCR plate, 15 μL of the appropriate qPCR Master Mix was added to the appropriate wells for each target/primer. After all the targets/primers have been added to the wells, 5 μL of the sample was added to the corresponding wells so that each well is 20 μL total. The plate was covered with a clear sheet. An qPCR run was set up (QuantStudio 5) with the following cycle: […]

[2] = Cell cytotoxicity 50 assay (CC50), HEK cells; settings: human
Protocol: (§1) Cell Cytotoxicity 50 Assay Protocol (CC50) Into a deep well block (DWB), the media for the appropriate cell line (450 μL/well) was added into wells 1-10. Into DWB well 2, 10 mM of drug solution (13.5 μL) was added, followed by an additional volume of the medium (225 μL). The well was pipetted up/down four times. A portion (225 μL) was transferred to well 3, and this process was repeated up to well 10. Using a multichannel pipet, a smaller portion (50 μL/well) was removed from all wells in the DWB and then dispensed on top of the cells in each corresponding row. After adding the drug, the plate was incubated at 37° C. for 72 h. Using a multi-channel pipet, pre-warmed cell titer glo reagent (Promega) (100 μL) was added into every well. After 5 minutes, the total luminescence was measured with a luminometer. CC50 was determined with GraphPad prism template.

[3] = Cell cytotoxicity 50 assay (CC50), MB200 cells, cell titer glo; settings: human
Protocol: as §1, with “(CC50) MB200 cells were grown until 80% confluent in F10 media supplemented with rhFGF basic (10 ng/ml), 15% fetal bovine serum, 1% penicillin streptomycin, 1% amphotericin B, and 1 μM dexamethasone. Adherent MB200 cells growing on 10 cm plate were then trypsinized with 1 ml of trypsin. Once the cells detached from the plate, F10 media (10 mL) was added, and the cells were strained through a 70 μm cell strainer. The cells were counted using a mixture of 10 μL cell suspension with 10 μL of trypan blue. Once the total number of cells were counted, a dilution of 200 k/mL was prepared, and the cells were seeded with 10 k cells/well in a 96-well plate in triplicate, making sure to avoid seeding cells in the edges of the plate to avoid edge effects. Using a multichannel pipet, the 200 k/mL cell dilution (50 μL/well) was added into wells B2-B11, C2-C11, and D2-D11 in triplicate.” for “(CC50)”

Compound | qPCR MBD3L2 Inhib at 11 µM [1] | CC50 at 72 h [2] | CC50 at 72 h [3]
O=C(CC1CCCC1)Nc1ccc(-c2nc3ccccc3s2)cc1 [Compound 21] | YES | > 10 µM | > 10 µM
O=C(CCc1cn[nH]c1)Nc1ccc(-c2nc3ccccc3s2)cc1 [Compound 27] | YES | > 10 µM | > 10 µM
Cc1ccc2nc(-c3ccc(NC(=O)C4CCC4)cc3)sc2c1 [Compound 29] | YES | > 10 µM | 1 to 10 µM
CC(=O)NCCNC(=O)c1ccc(-c2nc3cc(F)ccc3s2)cc1 [Compound 30] | YES | > 10 µM | > 10 µM
CC(C)C(=O)NCCCC(=O)Nc1ccc(-c2nc3ccccc3s2)cc1 [Compound 31] | YES | > 10 µM | > 10 µM
CC(=O)NCCCC(=O)Nc1ccc(-c2nc3ccccc3s2)nc1 [Compound 32] | YES | > 10 µM | > 10 µM
O=C(CCc1cnco1)Nc1ccc(-c2nc3ccccc3s2)cc1 [Compound 33] | YES | > 10 µM | > 10 µM
CN(C(=O)CCN1C(=O)CCC1=O)c1ccc(-c2nc3ccccc3s2)cc1 [Compound 34] | YES | > 10 µM | > 10 µM
CC(=O)OCCCC(=O)Nc1ccc(-c2nc3ccc(C)cc3s2)cc1 [Compound 36] | YES | 1 to 10 µM | > 10 µM
O=C(CCN1C(=O)CCC1=O)Nc1ccc(-c2nc3ccccc3s2)nc1 [Compound 37] | YES | > 10 µM | > 10 µM
CC(=O)NCCC(=O)Nc1ccc(-c2nc3ccccc3s2)cc1 [Compound 38] | YES | > 10 µM | > 10 µM
O=C(CCc1nnc[nH]1)Nc1ccc(-c2nc3ccccc3s2)cc1 [Compound 39] | YES | > 10 µM | > 10 µM
O=C(CCc1cnn[nH]1)Nc1ccc(-c2nc3ccccc3s2)cc1 [Compound 40] | YES | > 10 µM | > 10 µM
O=C(CCCN1C(=O)CCC1=O)Nc1ccc(-c2nc3ccccc3s2)cc1 [Compound 41] | YES | > 10 µM | > 10 µM
CC(=O)NCCC(=O)Nc1ccc(-c2nc3cc(F)ccc3s2)cc1 [Compound 44] | YES | > 10 µM | > 10 µM
O=C(CCCN1C(=O)CCC1=O)NC1CC=C(c2nc3ccccc3s2)CC1 (stereo not drawn) [Compound 46] | YES | > 10 µM | > 10 µM
CC(=O)NCCCC(=O)Nc1ccc(-c2nc3ccccc3s2)cn1 [Compound 49] | YES | > 10 µM | > 10 µM

Compound | qPCR MBD3L2 Inhib at 11 µM [1] | CC50 at 72 h [2] | CC50 at 72 h [3]
O=C(CCCc1cccnc1)Nc1ccc(-c2nc3ccccc3s2)cc1 [Compound 52] | YES | > 10 µM | > 10 µM
CC(=O)NCCC(=O)Nc1ccc(-c2nc3cc(C)ccc3s2)cc1 [Compound 53] | YES | > 10 µM | > 10 µM
N#Cc1ccc2nc(-c3ccc(NC(=O)CCN4C(=O)CCC4=O)cc3)sc2c1 [Compound 54] | YES | > 10 µM | 1 to 10 µM
O=C(CCc1cncnc1)Nc1ccc(-c2nc3ccccc3s2)cc1 [Compound 55] | YES | > 10 µM | > 10 µM
CC(=O)NC(C)CCC(=O)Nc1ccc(-c2nc3ccccc3s2)cc1 (stereo not drawn) [Compound 56] | YES | > 10 µM | > 10 µM
CC(=O)NCCCC(=O)Nc1cnc(-c2nc3ccccc3s2)nc1 [Compound 59] | YES | > 10 µM | > 10 µM
O=C(CCCc1cccnc1)Nc1ccc(Cc2nc3ccccc3s2)cc1 [Compound 60] | YES | > 10 µM | > 10 µM
O=C(CCCc1cccnc1)NC1CCC(c2nc3ccccc3s2)CC1 (stereo not drawn) [Compound 61] | YES | > 10 µM | > 10 µM
O=C(CCCc1cccnc1)Nc1coc(-c2nc3ccccc3s2)c1 [Compound 62] | YES | > 10 µM | > 10 µM
O=C(CCCc1cnco1)Nc1ccc(-c2nc3cc(F)ccc3s2)cc1 [Compound 64] | YES | 1 to 10 µM | > 10 µM
O=C(CCc1cnco1)Nc1ccc(-c2nc3cc(F)ccc3s2)cc1 [Compound 65] | YES | > 10 µM | > 10 µM
O=C(CCCc1cnco1)NC1CCC(c2nc3ccccc3s2)CC1 (stereo not drawn) [Compound 67] | YES | > 10 µM | > 10 µM
CC(=O)NCCCCC(=O)Nc1ccc(-c2nc3ccccc3s2)cc1 [Compound 73] | YES | > 10 µM | > 10 µM
CC(=O)NCCCNC(=O)c1ccc(-c2nc3cc(F)ccc3s2)cc1 [Compound 74] | YES | > 10 µM | > 10 µM
O=C(CCCc1cccnc1)Nc1ccc(-c2nc3ccccc3s2)o1 [Compound 75] | YES | > 10 µM | > 10 µM
CC(=O)NCCCC(=O)Nc1ccc(-c2nc3ccccc3s2)o1 [Compound 76] | YES | > 10 µM | > 10 µM
